Key:
anti-BCMA CAR T cells [1] = experiment: Daratumumab on anti-BCMA CAR T cell numbers, frequency and activation; assay type: cell-based, human
Description: To assess whether daratumumab treatment affects CAR T cells with a disrupted β2M gene, anti-BCMA CAR T cells generated in Example 1 were treated with daratumumab with or without 10% complement. After a 72 hour culture period, anti-BCMA CAR T cell numbers and frequency were measured in a flow cytometry assay as described in Example 3 (FIGS. 12A-12B).
To determine if higher concentrations of daratumumab (10 μg/mL) activates CAR T cells and causes subsequent proliferation or activation-induced cell death, anti-BCMA CAR T cells deficient in B2M were cultured with daratumumab at concentrations of 0.1, 1 or 10 μg/mL for 24 hours. Untreated cells or anti-BCMA CAR T cells deficient in B2M treated with IgG1k isotype control mAb were used as controls.

anti-BCMA CAR T cells [2] = experiment: High daratumumab concentrations in NK/CAR T co-culture: CAR T cell numbers; assay type: cell-based, human; details: up to 300 μg/mL; 72 hours
Description: (§1) Daratumumab is prescribed in the clinic at a dose of 16 mg/kg (225 μg/mL equivalent). To determine the effect of daratumumab at high concentrations on NK and CAR T cells, anti-BCMA CAR T cells deficient in B2M were co-cultured with purified NK cells that were pre-treated for 60 hours with either human IgGl^-k or daratumumab, each at concentrations of 0.01, 0.1, 1, 10, 100 or 300 μg/mL using methods as described in the previous examples. Flow cytometry was used to assess NK and CAR T cells numbers 72 hours after co-culturing with pre-treated NK cells using methods as described in the previous examples.

[3] = human, in vivo; cited from earlier work
NK cells [4] = experiment: High daratumumab concentrations in NK/CAR T co-culture: NK cell numbers; assay type: cell-based, human; details: 72 hours
Description: as §1

MM.1S tumors = experiment: Daratumumab plus anti-BCMA CAR-T cells in subcutaneous MM.1S xenograft model; assay type: in vivo, NOG mice; details: high dose 2.4×10^6 CAR+ T cells iv day 0; daratumumab 15 mg/kg IP twice weekly
Description: The effect of combining daratumumab with anti-BCMA CAR-T cell treatment was tested in a subcutaneous MM.1S xenograft model in immunocompromised NOG mice (NOD.Cg-Prkdc^scidIl2rg^tm1Sug/JicTac). In brief, 5 to 8-week old female NOG mice were individually housed in ventilated microisolator cages and maintained under pathogen-free conditions. The animals each received a subcutaneous inoculation in the right flank of 5×10^6 MM.1S cells in 50% Matrigel. When the mean tumor volume reached 150 mm^3 (approximately 125 to 175 mm^3), the mice were randomized into groups with 5 mice per group. Tested groups included an untreated arm, daratumumab only treatment, anti-BCMA CAR-T cell only treatment (low dose or high dose), and anti-BCMA CAR-T cell (low dose or high dose) in combination with daratumumab. Anti-BCMA CAR-T cells were dosed by intravenous injection of 0.8×10^6 (low dose) or 2.4×10^6 (high dose) CAR^+ T cells at day 0. Daratumumab was dosed IP at 15 mg/kg, twice weekly, starting 2 days prior to anti-BCMA CAR-T cell dosing.
Tumor volume and body weights were measured twice weekly and individual mice were euthanized when their tumor volume reached ≥2000 mm^3.

NK cells [5] = experiment: Daratumumab in PBMC culture: NK cell frequency and numbers; assay type: cell-based, human
Description: Based on the expression levels of CD38 on NK and T cells, the effect of an anti-CD38 antibody, daratumumab (TAB-236, Creative Biolabs), on such cells was assessed. […] The effect of 10% complement on the cell cultures was also tested. Untreated cells and cells treated with 0.01, 0.1 or 1 μg/mL isotype control mAb (human IgG1k) (cat #403501, BioLegend) were used as controls. After 96 hours of culture, NK and T cell frequency and numbers were measured.

T cells = experiment: Daratumumab in PBMC culture: T cell frequency and numbers; assay type: cell-based, human; details: 0.01, 0.1 or 1 μg/mL, 96 hours
Description: Based on the expression levels of CD38 on NK and T cells, the effect of an anti-CD38 antibody, daratumumab (TAB-236, Creative Biolabs), on such cells was assessed. PBMCs from a healthy donor were cultured for 96 hours in media containing 0.01, 0.1, or 1 μg/mL of daratumumab. The effect of 10% complement on the cell cultures was also tested. Untreated cells and cells treated with 0.01, 0.1 or 1 μg/mL isotype control mAb (human IgG1k) (cat #403501, BioLegend) were used as controls. After 96 hours of culture, NK and T cell frequency and numbers were measured.

NK cells [6] = experiment: NK cell-mediated CAR T cell lysis after daratumumab pre-treatment of NK cells (DAPI cell-kill assay); assay type: cell-based, human
Description: To determine if daratumumab blunts NK-cell mediated CAR T cell lysis, anti-BCMA CAR T cells were co-cultured with purified NK cells that were pre-treated for 60 hours with either daratumumab or isotype control mAb at concentrations of 0.01, 0.1, or 1 μg/mL (FIG. 13A). At the end of the 60 hour pre-treatment period, 50,000 efluor-labelled anti-BCMA CAR T cells were added to the plate containing 150,000 NK cells and Dara/isotype control, and incubated for an additional 24 hours. At the end of the 24-hour co-culture period, anti-BCMA CAR T cell lysis was measured in a cell-kill assay with DAPI.
Specifically, the anti-BCMA CAR T cells were labeled with 5 μM efluor670 (Cat #65-0840-90; ThermoFisher Scientific), washed and incubated in co-cultures with the NK cells at a 3:1 (NK:T) ratio. The co-culture was incubated 24 hr. After incubation, wells were washed and media was replaced with 150 μL of 1× FACS buffer containing a 1:500 dilution of 5 mg/mL DAPI (Molecular Probes) and 12.5 μL of CountBright beads (C36950; ThermoFisher Scientific).
To determine if 10 μg/mL daratumumab blunts NK-cell mediated CAR T cell lysis, anti-BCMA CAR T cells deficient in B2M were co-cultured with purified NK cells that were pre-treated for 60 hours with either daratumumab or isotype control mAb at concentrations of 0.1, 1 or 10 μg/mL. Briefly, NK cells were plated at 50,000 or 150,000 cells per well and treated with daratumumab or the isotype control at concentrations of 0, 0.1, 1 and 10 μg/mL. After 60 hours of treatment of NK cells with daratumumab, the anti-BCMA CAR T cells were labeled with 5 μM efluor670 (Cat #65-0840-90; ThermoFisher Scientific), washed and seeded at 50,000 cells per well in co-cultures with the daratumumab-treated NK cells to make 1:1 or 3:1 (NK:T) ratio. The co-culture was incubated for further 24 hr. […] The cells were analyzed for cell viability by flow cytometry (i.e., viable cells being negative for DAPI staining) Pre-treatment with daratumumab protected anti-BCMA CAR T cell from NK induced cell lysis in a dose-dependent manner (FIGS. 14B-14C). […]

multiple myeloma = details: third-line or fourth-line therapy; approximate; cited from earlier work

daratumumab: fully human IgGκ monoclonal antibody that targets CD38
activation of CAR T cells (anti-BCMA CAR T cells [1]): did not induce activation of CAR T cells | B2M deficient CAR T cell numbers (anti-BCMA CAR T cells [1]; 10 μg/mL, 24 hours): did not significantly reduce B2M deficient CAR T cells numbers | anti-BCMA CAR T cell numbers or frequency (anti-BCMA CAR T cells [1]; 72 hour culture, with or without 10% complement): did not affect anti-BCMA CAR T cells numbers or frequency | BCMA CAR T cell numbers (anti-BCMA CAR T cells [2]): unaffected by the high daratumumab concentrations | hepatitis B reactivation [3]: 1% | herpes zoster reactivation [3]: 2% | decrease in NK cells (NK cells [4]; 1 μg/mL): 29% | further decrease in NK cells (NK cells [4]; 300 μg/mL): 38% | mean tumor volume at day 26 (MM.1S tumors): 1475 mm^3 | reduction of NK cell numbers (NK cells [5]; 1 μg/mL, 96 hours): approximately 75% | NK cell frequency and numbers (NK cells [5]; 0.01, 0.1 or 1 μg/mL, 96 hours): dose-dependent decrease of NK cell frequency and numbers | reduction of NK cell numbers (NK cells [5]; PBMCs from a different donor, 72 hours): ~57% | complement dependence of NK cell reduction (NK cells [5]; addition of 10% complement): not complement dependent | T cell numbers or frequency (T cells): did not affect T cell numbers or frequency | protective effect against anti-BCMA CAR T cell lysis (NK cells [6]; 1:1 NK:T ratio, 0.1 μg/mL, 60 hours pre-treatment): 91% | protection from NK cell lysis (NK cells [6]; 3:1 NK:CAR T ratio, 1 μg/mL, 60 hours pre-treatment): 85% | anti-BCMA CAR T cell lysis by pre-treated NK cells (NK cells [6]; NK cells pre-treated 60 hours at 0.01, 0.1 or 1 μg/mL, 3:1 NK:T, 24 hr co-culture): reduced anti-BCMA CAR T cell lysis in a dose-dependent manner | historical ORR (multiple myeloma): ~30%

Reference: US20220202859A1, “CANCER TREATMENT USING CD38 INHIBITOR AND/OR LENALIDOMIDE AND T-CELLS EXPRESSING A CHIMERIC ANTIGEN RECEPTOR” (CRISPR THERAPEUTICS AG, priority 2020, published 2022)
